Experimental data published in ChEMBL document CHEMBL1201862, “PubChem BioAssay data set” (2004).
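Five compound concentrations were applied to cells in 96-well plates for 48 hours; endpoints were derived by simple linear interpolation of the resulting dose-response curve. Abbreviation: GI50, concentration required for 50% inhibition of growth.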 Activity calls are given as the source filed them. No stated cut-off is given here; in the data, active = GI50 up to about 1.1 µM and inactive = higher.

Assays:
Test in all cases: growth of human tumour cells (NCI), 48 h
786-0 = system: 786-0
SNB-75 = system: SNB-75
HT-29 = system: HT-29
RXF 393 = system: RXF 393
IGROV-1 = system: IGROV-1
SF-295 = system: SF-295
UO-31 = system: UO-31
KM-20L2 = system: KM-20L2
CCRF-CEM = system: CCRF-CEM
NCI-H226 = system: NCI-H226
OVCAR-4 = system: OVCAR-4
SK-MEL-28 = system: SK-MEL-28
TK-10 = system: TK-10
HOP-62 = system: HOP-62
UACC-257 = system: UACC-257
OVCAR-8 = system: OVCAR-8
U-251 = system: U-251
DLD-1 = system: DLD-1
SK-MEL-2 = system: SK-MEL-2
HOP-92 = system: HOP-92
COLO 205 = system: COLO 205
XF498 = system: XF498
RXF 631 = system: RXF 631
HCT-116 = system: HCT-116
NCI-H460 = system: NCI-H460
UACC-62 = system: UACC-62
SW-620 = system: SW-620
M14 = system: M14
A549 = system: A549
NCI-H522 = system: NCI-H522
NCI-H23 = system: NCI-H23
K562 = system: K562
OVCAR-3 = system: OVCAR-3
SNB-78 = system: SNB-78
SN12C = system: SN12C
HL-60 = system: HL-60
HCC 2998 = system: HCC 2998
ACHN = system: ACHN
EKVX = system: EKVX
HCT-15 = system: HCT-15
SF-268 = system: SF-268
SK-MEL-5 = system: SK-MEL-5
SK-OV-3 = system: SK-OV-3
MOLT-4 = system: MOLT-4
M19-MEL = system: M19-MEL
RPMI-8226 = system: RPMI-8226
CAKI-1 = system: CAKI-1
A498 = system: A498
SNB-19 = system: SNB-19
HOP-18 = system: HOP-18
DMS-273 = system: DMS-273
DMS-114 = system: DMS-114
KM12 = system: KM12
LOX IMVI = system: LOX IMVI
Malme-3M = system: Malme-3M
OVCAR-5 = system: OVCAR-5
SF-539 = system: SF-539
LXFL 529 = system: LXFL 529
SR = system: SR

O=C(c1cc(=O)c2ccc(O)cc2o1)c1ccc(Cl)cc1Cl
GI50 (786-0): 28.2 µM (inactive) | GI50 (SNB-75): > 82.2 µM (inactive) | GI50 (HT-29): 36.2 µM (inactive) | GI50 (RXF 393): 29 µM (inactive) | GI50 (IGROV-1): 17.7 µM (inactive) | GI50 (SF-295): 20.6 µM (inactive) | GI50 (UO-31): 5.92 µM (inactive) | GI50 (KM-20L2): 10.6 µM (inactive) | GI50 (CCRF-CEM): 7.35 µM (inactive) | GI50 (NCI-H226): 26.7 µM (inactive) | GI50 (OVCAR-4): 12 µM (inactive) | GI50 (SK-MEL-28): > 59.3 µM (inactive) | GI50 (TK-10): 38.5 µM (inactive) | GI50 (HOP-62): 8.18 µM (inactive) | GI50 (UACC-257): 19.5 µM (inactive) | GI50 (OVCAR-8): 22.8 µM (inactive) | GI50 (U-251): 20.6 µM (inactive) | GI50 (DLD-1): 17.4 µM (inactive) | GI50 (SK-MEL-2): 26 µM (inactive) | GI50 (HOP-92): 32.8 µM (inactive) | GI50 (COLO 205): 3.27 µM (inactive) | GI50 (XF498): 26.8 µM (inactive) | GI50 (RXF 631): 11.1 µM (inactive) | GI50 (HCT-116): 13.6 µM (inactive) | GI50 (NCI-H460): 6.01 µM (inactive) | GI50 (UACC-62): 5.93 µM (inactive) | GI50 (SW-620): 12.2 µM (inactive) | GI50 (M14): 5.12 µM (inactive) | GI50 (A549): > 30.8 µM (inactive) | GI50 (NCI-H522): 9.89 µM (inactive) | GI50 (NCI-H23): 24 µM (inactive) | GI50 (K562): 0.547 µM (active) | GI50 (OVCAR-3): 15.5 µM (inactive) | GI50 (SNB-78): 31.3 µM (inactive) | GI50 (SN12C): 17.2 µM (inactive) | GI50 (HL-60): 1.26 µM (inactive) | GI50 (HCC 2998): 9.75 µM (inactive) | GI50 (ACHN): 5.24 µM (inactive) | GI50 (EKVX): 50.2 µM (inactive) | GI50 (HCT-15): 4.63 µM | GI50 (SF-268): 13.8 µM (inactive) | GI50 (SK-MEL-5): 20.4 µM (inactive) | GI50 (SK-OV-3): > 62.1 µM (inactive) | GI50 (MOLT-4): 2.81 µM (inactive) | GI50 (M19-MEL): 13.8 µM (inactive) | GI50 (RPMI-8226): 9.66 µM (inactive) | GI50 (CAKI-1): > 69.7 µM (inactive) | GI50 (A498): 57.3 µM (inactive) | GI50 (SNB-19): 49.1 µM (inactive) | GI50 (HOP-18): 29.4 µM (inactive) | GI50 (DMS-273): 3.89 µM (inactive) | GI50 (DMS-114): 3.92 µM (inactive) | GI50 (KM12): 5.9 µM (inactive) | GI50 (LOX IMVI): 3.15 µM (inactive) | GI50 (Malme-3M): 34.4 µM (inactive) | GI50 (OVCAR-5): > 74.8 µM (inactive)

CCCNC(/C=C/[Si](C)(C)C)CO.CCCNCC(O)/C=C/[Si](C)(C)C (stereo not drawn)
GI50 (SNB-75): 40.6 µM (inactive) | GI50 (HT-29): > 100 µM (inactive) | GI50 (RXF 393): 95.7 µM (inactive) | GI50 (IGROV-1): > 100 µM (inactive) | GI50 (SF-295): > 100 µM (inactive) | GI50 (UO-31): > 100 µM (inactive) | GI50 (KM-20L2): > 100 µM (inactive) | GI50 (CCRF-CEM): > 100 µM (inactive) | GI50 (SK-MEL-28): > 100 µM (inactive) | GI50 (TK-10): > 100 µM (inactive) | GI50 (UACC-257): > 100 µM (inactive) | GI50 (OVCAR-8): > 100 µM (inactive) | GI50 (U-251): > 100 µM (inactive) | GI50 (DLD-1): > 100 µM (inactive) | GI50 (SK-MEL-2): > 100 µM (inactive) | GI50 (HOP-92): 36.9 µM (inactive) | GI50 (COLO 205): 98.2 µM (inactive) | GI50 (XF498): 22 µM (inactive) | GI50 (RXF 631): > 100 µM (inactive) | GI50 (SF-539): > 100 µM (inactive) | GI50 (HCT-116): > 100 µM (inactive) | GI50 (NCI-H460): > 100 µM (inactive) | GI50 (UACC-62): > 100 µM (inactive) | GI50 (LXFL 529): > 100 µM (inactive) | GI50 (SW-620): > 100 µM (inactive) | GI50 (M14): > 100 µM (inactive) | GI50 (A549): > 100 µM (inactive) | GI50 (NCI-H522): > 100 µM (inactive) | GI50 (NCI-H23): > 100 µM (inactive) | GI50 (K562): > 100 µM (inactive) | GI50 (OVCAR-3): > 100 µM (inactive) | GI50 (SNB-78): > 100 µM (inactive) | GI50 (SN12C): > 100 µM (inactive) | GI50 (HL-60): > 100 µM (inactive) | GI50 (SR): > 100 µM (inactive) | GI50 (HCC 2998): > 100 µM (inactive) | GI50 (ACHN): > 100 µM (inactive) | GI50 (EKVX): > 100 µM (inactive) | GI50 (HCT-15): > 100 µM | GI50 (SK-MEL-5): > 100 µM (inactive) | GI50 (SK-OV-3): > 100 µM (inactive) | GI50 (MOLT-4): 10 µM (inactive) | GI50 (M19-MEL): > 100 µM (inactive) | GI50 (RPMI-8226): 90.8 µM (inactive) | GI50 (A498): > 100 µM (inactive) | GI50 (SNB-19): > 100 µM (inactive) | GI50 (HOP-18): > 100 µM (inactive) | GI50 (DMS-114): > 100 µM (inactive) | GI50 (KM12): > 100 µM (inactive) | GI50 (LOX IMVI): > 100 µM (inactive) | GI50 (Malme-3M): > 100 µM (inactive) | GI50 (OVCAR-5): > 100 µM (inactive)
